According to US6706663B2, “Herbicidal 3-heterocyclic substituted benzisothiazole and benzisoxazole compounds” (Wyeth, priority 2000, dated 2004):

How the values were obtained:
[1] = test system: ECHORC (Echinochloa oryzoides); test: Flooded paddy, preemergence weed control; format: in vivo, Echinochloa oryzoides (Ard.) Fritsch.; conditions: rated 3-4 weeks after treatment, 0-9 rating scale
Method in brief: (§1)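 Scoring used a 0-9 visual scale relative to control. Before that, seeds or propagules were planted shallowly in silt loam and flooded to 1.5–3 cm, a depth maintained throughout, with greenhouse care during the test.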

[2] = test system: TRZAWR (Wheat, Winter, cv Riband); test: Preemergence herbicidal evaluation; format: in vivo, Triticum aestivum; conditions: preemergence, rated 4-5 weeks after treatment
Method in brief: (§2)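 Greenhouse preemergence test: freshly planted cups were sprayed once with an aqueous acetone solution of compound. Injury was judged visually on a 0–9 scale relative to a control, four to five weeks later.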

ORYSAT (Rice, Tebonnet) [3] = test: Preemergence herbicidal evaluation; format: in vivo, Oryza sativa, (L.) Tebonnet; conditions: preemergence, rated 4-5 weeks after treatment
[4] = test system: GLXMAW (Soybean, Williams); test: Postemergence herbicidal evaluation; format: in vivo, Glycine max, (L.) Merr. cv Williams; conditions: postemergence
Method in brief: (§3)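 Seedlings grown for about two weeks were sprayed postemergence and then kept under standard greenhouse care. Injury was rated visually 4–5 weeks after treatment on a 0–9 scale against untreated controls, and ratings from repeat tests were averaged.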

GALAP (Galium aparine) = test: Preemergence herbicidal evaluation; format: in vivo; conditions: preemergence, rated 4-5 weeks after treatment
Method in brief: as §2

[5] = test system: MOOVA (Monochoria vaginalis); test: Flooded paddy, preemergence weed control; format: in vivo, Presl.; conditions: rated 3-4 weeks after treatment, 0-9 rating scale
Method in brief: as §1

[6] = test system: ABUTH (Abutilon theophrasti); test: Preemergence herbicidal evaluation; format: in vivo, Medic.; conditions: preemergence, rated 4-5 weeks after treatment
[7] = test system: ECHCG (Echinochloa crus-galli); test: Postemergence herbicidal evaluation; format: in vivo, (L.) Beau; conditions: postemergence
Method in brief: as §3

[8] = test system: IPOHE (Ipomoea hederacea); test: Postemergence herbicidal evaluation; format: in vivo, (L.) Jacq.; conditions: postemergence
Method in brief: as §3

ORYSAT (Rice, Tebonnet) [9] = test: Postemergence herbicidal evaluation; format: in vivo, Oryza sativa, (L.) Tebonnet; conditions: postemergence
Method in brief: as §3

ZEAMX (Corn, Field) = test: Postemergence herbicidal evaluation; format: in vivo, Zea mays, L.; conditions: postemergence
Method in brief: as §3

[10] = test system: ECHCG (Echinochloa crus-galli); test: Preemergence herbicidal evaluation; format: in vivo, (L.) Beau; conditions: preemergence, rated 4-5 weeks after treatment
Method in brief: as §2

SETVI (Setaria viridis) [11] = test: Preemergence herbicidal evaluation; format: in vivo, (L.) Beau; conditions: preemergence, rated 4-5 weeks after treatment
Method in brief: as §2

SETVI (Setaria viridis) [12] = test: Postemergence herbicidal evaluation; format: in vivo, (L.) Beau; conditions: postemergence
Method in brief: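 Seedlings about two weeks old were sprayed with compound in 50/50 acetone/water plus 0.5% TWEEN 20, at the equivalent of about 0.0040 to 1.000 kg/ha. Plants were kept in a greenhouse and visually rated 0-9 against a control four to five weeks after treatment. Repeat tests were averaged.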

[13] = test system: AMBEL (Ambrosia artemisifolia); test: Preemergence herbicidal evaluation; format: in vivo, L.; conditions: preemergence, rated 4-5 weeks after treatment
Method in brief: as §2

[14] = test system: CHEAL (Chenopodium album); test: Preemergence herbicidal evaluation; format: in vivo, L.; conditions: preemergence, rated 4-5 weeks after treatment
Method in brief: as §2

[15] = test system: CASOB (Cassia obtusifolia); test: Preemergence herbicidal evaluation; format: in vivo, L.; conditions: preemergence, rated 4-5 weeks after treatment
Method in brief: as §2

[16] = test system: TRZAWR (Wheat, Winter, cv Riband); test: Postemergence herbicidal evaluation; format: in vivo, Triticum aestivum; conditions: postemergence
Method in brief: as §3

Cn1c(C(F)(F)F)cc(=O)n(-c2ccc3snc(-c4ccoc4)c3c2)c1=O [Compound 83, 3-[3-(3-furyl)-1,2-benzisothiazol-5-yl]-1-methyl-6-(trifluoromethyl)uracil]
herbicidal rating, ECHORC ([1]; rate 0.0080 kg/ha): 0.0
herbicidal rating, ECHORC ([1]; rate 0.0320 kg/ha): 6.0
herbicidal rating, ECHORC ([1]; rate 0.1250 kg/ha): 7.0
Preemergence herbicidal rating TRZAWR ([2]; rate 0.0620 kg/ha): 3.0
Preemergence herbicidal rating TRZAWR ([2]; rate 0.1250 kg/ha): 4.0
Preemergence herbicidal rating TRZAWR ([2]; rate 0.2500 kg/ha): 5.0
Preemergence herbicidal rating ORYSAT (ORYSAT (Rice, Tebonnet) [3]; rate 0.0620 kg/ha): 0.0
Preemergence herbicidal rating ORYSAT (ORYSAT (Rice, Tebonnet) [3]; rate 0.1250 kg/ha): 3.5
Preemergence herbicidal rating ORYSAT (ORYSAT (Rice, Tebonnet) [3]; rate 0.2500 kg/ha): 5.5
GLXMAW herbicidal rating ([4]; rate 0.0320 kg/ha): 4.0
GLXMAW herbicidal rating ([4]; rate 0.0620 kg/ha): 6.0
Preemergence herbicidal rating GALAP (GALAP (Galium aparine); rate 0.1250 kg/ha): 4.0
herbicidal rating, MOOVA ([5]; rate 0.0080 kg/ha): 0.0
herbicidal rating, MOOVA ([5]; rate 0.0320 kg/ha): 9.0
herbicidal rating, MOOVA ([5]; rate 0.1250 kg/ha): 9.0
Preemergence herbicidal rating ABUTH ([6]; rate 0.0620 kg/ha): 2.0
Preemergence herbicidal rating ABUTH ([6]; rate 0.1250 kg/ha): 7.5
Preemergence herbicidal rating ABUTH ([6]; rate 0.2500 kg/ha): 9.0
ECHCG herbicidal rating ([7]; rate 0.0320 kg/ha): 2.0
ECHCG herbicidal rating ([7]; rate 0.0620 kg/ha): 3.0
IPOHE herbicidal rating ([8]; rate 0.0320 kg/ha): 2.0
IPOHE herbicidal rating ([8]; rate 0.0620 kg/ha): 4.0
ORYSAT herbicidal rating (ORYSAT (Rice, Tebonnet) [9]; rate 0.0320 kg/ha): 1.5
ORYSAT herbicidal rating (ORYSAT (Rice, Tebonnet) [9]; rate 0.0620 kg/ha): 3.0
ZEAMX herbicidal rating (ZEAMX (Corn, Field); rate 0.0320 kg/ha): 2.5
ZEAMX herbicidal rating (ZEAMX (Corn, Field); rate 0.0620 kg/ha): 3.0
Preemergence herbicidal rating ECHCG ([10]; rate 0.0620 kg/ha): 2.0
Preemergence herbicidal rating ECHCG ([10]; rate 0.1250 kg/ha): 6.5
Preemergence herbicidal rating ECHCG ([10]; rate 0.2500 kg/ha): 9.0
Preemergence herbicidal rating SETVI (SETVI (Setaria viridis) [11]; rate 0.0620 kg/ha): 6.0
Preemergence herbicidal rating SETVI (SETVI (Setaria viridis) [11]; rate 0.1250 kg/ha): 9.0
Preemergence herbicidal rating SETVI (SETVI (Setaria viridis) [11]; rate 0.2500 kg/ha): 9.0
SETVI herbicidal rating (SETVI (Setaria viridis) [12]; rate 0.0320 kg/ha): 3.0
SETVI herbicidal rating (SETVI (Setaria viridis) [12]; rate 0.0620 kg/ha): 4.0
Preemergence herbicidal rating AMBEL ([13]; rate 0.0620 kg/ha): 6.0
Preemergence herbicidal rating AMBEL ([13]; rate 0.1250 kg/ha): 7.5
Preemergence herbicidal rating AMBEL ([13]; rate 0.2500 kg/ha): 9.0
Preemergence herbicidal rating CHEAL ([14]; rate 0.0620 kg/ha): 4.0
Preemergence herbicidal rating CHEAL ([14]; rate 0.1250 kg/ha): 9.0
Preemergence herbicidal rating CHEAL ([14]; rate 0.2500 kg/ha): 9.0
Preemergence herbicidal rating CASOB ([15]; rate 0.0620 kg/ha): 0.0
Preemergence herbicidal rating CASOB ([15]; rate 0.1250 kg/ha): 0.0
Preemergence herbicidal rating CASOB ([15]; rate 0.2500 kg/ha): 1.0
TRZAWR herbicidal rating ([16]; rate 0.0320 kg/ha): 2.0
TRZAWR herbicidal rating ([16]; rate 0.0620 kg/ha): 3.0

CSCC1COC(c2nsc3ccc(-n4c(=O)cc(C(F)(F)F)n(C)c4=O)cc23)O1 (stereo not shown) [Compound 84, 1-methyl-3-[3-[4-[(methylthio)methyl]-1,3-dioxolan-2-yl]-1,2-benzisothiazol-5-yl]-6-(trifluoromethyl)uracil]
herbicidal rating, ECHORC ([1]; rate 0.0080 kg/ha): 0.0
herbicidal rating, ECHORC ([1]; rate 0.0320 kg/ha): 7.5
herbicidal rating, ECHORC ([1]; rate 0.1250 kg/ha): 8.0
Preemergence herbicidal rating TRZAWR ([2]; rate 0.0620 kg/ha): 2.0
Preemergence herbicidal rating TRZAWR ([2]; rate 0.1250 kg/ha): 5.0
Preemergence herbicidal rating ORYSAT (ORYSAT (Rice, Tebonnet) [3]; rate 0.0620 kg/ha): 2.5
Preemergence herbicidal rating ORYSAT (ORYSAT (Rice, Tebonnet) [3]; rate 0.1250 kg/ha): 3.5
Preemergence herbicidal rating ORYSAT (ORYSAT (Rice, Tebonnet) [3]; rate 0.2500 kg/ha): 6.0
GLXMAW herbicidal rating ([4]; rate 0.0320 kg/ha): 8.5
GLXMAW herbicidal rating ([4]; rate 0.0620 kg/ha): 9.0
GLXMAW herbicidal rating ([4]; rate 0.1250 kg/ha): 9.0
Preemergence herbicidal rating GALAP (GALAP (Galium aparine); rate 0.0620 kg/ha): 7.0
Preemergence herbicidal rating GALAP (GALAP (Galium aparine); rate 0.1250 kg/ha): 8.0
Preemergence herbicidal rating GALAP (GALAP (Galium aparine); rate 0.2500 kg/ha): 9.0
herbicidal rating, MOOVA ([5]; rate 0.0080 kg/ha): 9.0
herbicidal rating, MOOVA ([5]; rate 0.0320 kg/ha): 9.0
herbicidal rating, MOOVA ([5]; rate 0.1250 kg/ha): 9.0
Preemergence herbicidal rating ABUTH ([6]; rate 0.0620 kg/ha): 9.0
Preemergence herbicidal rating ABUTH ([6]; rate 0.1250 kg/ha): 9.0
Preemergence herbicidal rating ABUTH ([6]; rate 0.2500 kg/ha): 9.0
ECHCG herbicidal rating ([7]; rate 0.0320 kg/ha): 4.5
ECHCG herbicidal rating ([7]; rate 0.0620 kg/ha): 6.5
ECHCG herbicidal rating ([7]; rate 0.1250 kg/ha): 9.0
IPOHE herbicidal rating ([8]; rate 0.0320 kg/ha): 9.0
IPOHE herbicidal rating ([8]; rate 0.0620 kg/ha): 9.0
IPOHE herbicidal rating ([8]; rate 0.1250 kg/ha): 9.0
ORYSAT herbicidal rating (ORYSAT (Rice, Tebonnet) [9]; rate 0.0320 kg/ha): 5.3
ORYSAT herbicidal rating (ORYSAT (Rice, Tebonnet) [9]; rate 0.0620 kg/ha): 6.5
ORYSAT herbicidal rating (ORYSAT (Rice, Tebonnet) [9]; rate 0.1250 kg/ha): 9.0
ZEAMX herbicidal rating (ZEAMX (Corn, Field); rate 0.0320 kg/ha): 4.8
ZEAMX herbicidal rating (ZEAMX (Corn, Field); rate 0.0620 kg/ha): 6.0
ZEAMX herbicidal rating (ZEAMX (Corn, Field); rate 0.1250 kg/ha): 8.5
Preemergence herbicidal rating ECHCG ([10]; rate 0.0620 kg/ha): 4.0
Preemergence herbicidal rating ECHCG ([10]; rate 0.1250 kg/ha): 6.7
Preemergence herbicidal rating ECHCG ([10]; rate 0.2500 kg/ha): 9.0
Preemergence herbicidal rating SETVI (SETVI (Setaria viridis) [11]; rate 0.0620 kg/ha): 3.5
Preemergence herbicidal rating SETVI (SETVI (Setaria viridis) [11]; rate 0.1250 kg/ha): 7.5
Preemergence herbicidal rating SETVI (SETVI (Setaria viridis) [11]; rate 0.2500 kg/ha): 9.0
SETVI herbicidal rating (SETVI (Setaria viridis) [12]; rate 0.0320 kg/ha): 6.0
SETVI herbicidal rating (SETVI (Setaria viridis) [12]; rate 0.0620 kg/ha): 9.0
Preemergence herbicidal rating AMBEL ([13]; rate 0.0620 kg/ha): 9.0
Preemergence herbicidal rating AMBEL ([13]; rate 0.1250 kg/ha): 9.0
Preemergence herbicidal rating AMBEL ([13]; rate 0.2500 kg/ha): 9.0
Preemergence herbicidal rating CHEAL ([14]; rate 0.0620 kg/ha): 9.0
Preemergence herbicidal rating CHEAL ([14]; rate 0.1250 kg/ha): 9.0
Preemergence herbicidal rating CHEAL ([14]; rate 0.2500 kg/ha): 9.0
Preemergence herbicidal rating CASOB ([15]; rate 0.0620 kg/ha): 4.0
Preemergence herbicidal rating CASOB ([15]; rate 0.1250 kg/ha): 8.0
Preemergence herbicidal rating CASOB ([15]; rate 0.2500 kg/ha): 9.0
TRZAWR herbicidal rating ([16]; rate 0.0320 kg/ha): 4.8
TRZAWR herbicidal rating ([16]; rate 0.0620 kg/ha): 6.3
TRZAWR herbicidal rating ([16]; rate 0.1250 kg/ha): 9.0
